Marks after values point to notes of the source that are not given here.
Legend:
[1] = Circularly polarized luminescence (CPL), dissymmetry factor glum; format: physicochemical; conditions: DMSO; wavelength in parentheses in the cell
Description: (§1) Steady-state room temperature photoluminescence measurements were performed with an Edinburgh Instrument FLSP920 spectrophotometer equipped with a Xe900 continuous xenon lamp, μF920 microsecond flash lamp and a single photon counting photomultiplier tube. Spectra were corrected with the bundled F900 software. Solution-state measurements were conducted using quartz curettes of 10 mm path length. CPL measurements were conducted on a custom built spectrometer^63 (in Durham University) consisting of a laser driven light source (Energetiq EQ-99 LDLS, spectral range 170 to 2100 nm) coupled to an Acton SP2150 monochromator (600 g/nm, 300 nm Blaze) that allows excitation wavelengths to be selected with a 6 nm FWHM band-pass. The collection of the emitted light was facilitated (90° angle set up, 1 cm path length quartz curette) by a Lock-In Amplifier (Hinds Instruments Signaloc 2100) and Photoelastic Modulator (Hinds Instruments PEM-90). The differentiated light was focused onto an Acton SP2150 monochromator (1200 g/nm, 500 nm Blaze) equipped with a high sensitivity cooled Photo Multiplier Tube (H10723-20 Extended red-multialkali PMT based photosensor (5V)). Spectra were recorded using a 5 spectral average sequence in the range of 570-720 nm with 0.5 nm spectral intervals and 500 μs integration time.

[2] = Absorption and photoluminescence (quantum yield, lifetime, q); format: physicochemical; set-up: λabs(max): unit not given here; conditions: for R, I(5D0 → 7F2)/I(5D0 → 7F1): asymmetry ratio, 10 in MeOH; for R, I(5D0 → 7F2)/I(5D0 → 7F1) / λabs(max): room temperature, 11 in DMSO; for ΦDMSO (%): luminescence quantum yield in DMSO; for λabs(max): 10 measured in MeOH
Description: as §1, with “Absorption spectra of complexes were measured with HP UV-8453 spectrophotometer. Steady-state” for “Steady-state”, “time. The recorded CPL spectrum underwent a 25% Fourier transformation smoothening protocol using Origin 8.0 Software (Origin Labs) to enhance appearance (all calculations were carried out using raw spectral data).” for “time.”
The shift in absorption is caused by electronic communication between the electropositive lanthanide center and the chromophore. […] These are not observed for 11, however, as we believe the steric effect of the planar phenyl ring of the benzyl group could not be alleviated by appropriate rotation, whereas that of the isobutyl group could.
The luminescence quantum yields of the complexes are decent in water and HEPES solution, although they are much higher in DMSO, due to the nonradiative quenching by O—H oscillators of water molecules in the second coordination sphere (Table 6). The intrinsic quantum yields^61—a calculated value evaluating the quantum yield of Eu(III) via direct metal excitation—of the complexes are calculated, and, as expected, the values are very similar, except for 10. The higher value corroborates with the shift in absorption maximum, for which we believe the reason is due to a shorter europium—chromophore distance and better interaction. On the other hand, the sensitization efficiencies of the complexes vary. […] The relatively remarkable ηsens of 13 is attributed to its structural rigidity, as both the tetraaza backbone and the acetate arms are modified with a chrial substituent, i.e., double chirality. The double chirality is also attributed for the increase in luminescence quantum yield compared to that of 12a/12b.

[3] = Water solubility of complexes; format: physicochemical
[4] = Rate of complexation of ligands with metal salts under mild (radiolabeling) conditions; format: physicochemical; conditions: pD 6.0-7.0, 50° C., 1H NMR titration
[5] = Relaxivity (r1, r2) measurement of Gd(III) complexes in water, BSA and human plasma; format: physicochemical; set-up: r1 Human Plasma (1.5 T): unit not given beside the values; conditions: 37° C.
Description: This is very important because the huge difference in the inner-sphere coordinated water exchange rate between the two isomers is a key factor for applications, for example, as MRI contrast agents. To show their potential value, the two diastereomers of [GdL2]^− ([GdL2A]^− and [GdL2B]^−) were separated and their relaxivities were measured. The relaxivities of [GdL1]^−, [GdL2]^−, [GdL2A]^−, [GdL2B]^− and [GdDOTA]^− in water at different magnetic strengths (1.5 T and 11.7 T) were compared, with or without the presence of BSA and human plasma (1.5 T) (Table 1). It is clearly seen that the complexes of [GdL1]^−, [GdL2A]^− and [GdL2B]^− have relaxivity properties similar to that of the [GdDOTA]^− complex.

[6] = Kinetic inertness: competitive titration with DTPA, UPLC-HRMS; format: physicochemical; conditions: 1000 eq. of DTPA, pH 5.0, 0.1 M ammonium acetate, shaken 7 days; for decomplexation in presence of competitive ligand DTPA: room temperature
Description: Experimental procedure: Stock solution of [GdL1]^− and [GdL2]^− were prepared in 0.1 M ammonium acetate, 0˜1000 equivalents of DTPA were added into the solutions, the final concentrations of the gadolinium complexes were 14.8 mM for [GdL1]^− and 21.6 mM for [GdL2]^− (6 mL). The mixtures were shaken at room temperature, and samples of 1 ml of solutions were taken out for UPLC-HRMS analysis on day 3 and day 7.
Results: Competitive bath titrations were performed with the Gd analogues, [GdL1]^− and [GdL2]^−, in the presence of 0-1000 equivalents of competitive ligand DTPA (pentetic acid or diethylenetriaminepentaacetic acid) in 0.1 M ammonium acetate solution. After being shaken for 7 days (1000 eq. of DTPA, pH 5.0), the mixtures were analyzed by UPLC-HRMS. […] This finding is of significant importance for future use of the complexes in biomedical applications.

BSA = BSA (Bos taurus, UniProt P02769); assay: Protein binding with BSA determined by ICP-MS; format: in vitro ADME
human plasma = assay: Protein binding with human plasma determined by ICP-MS; format: in vitro ADME
[7] = ICP-MS, summary of Tables 2 and 3
[8] = Table 2, sample A, conc. before 0.32286251 mM
[9] = Table 2, sample B, conc. before 0.15917209 mM
[10] = Table 2, sample C, conc. before 0.02070731 mM
[11] = Table 3, sample A, conc. before 0.3714242 mM
[12] = Table 3, sample B, conc. before 0.1551093 mM
[13] = Table 3, sample C, conc. before 0.0251512 mM
[14] = Table 2, sample A, conc. before 0.3167862 mM
[15] = Table 2, sample B, conc. before 0.162104 mM
[16] = Table 2, sample C, conc. before 0.021152 mM
[17] = Table 3, sample A, conc. before 0.3699171 mM
[18] = Table 3, sample B, conc. before 0.134016 mM
[19] = Table 3, sample C, conc. before 0.0189002 mM

Chain of BSA (P02769 25-607): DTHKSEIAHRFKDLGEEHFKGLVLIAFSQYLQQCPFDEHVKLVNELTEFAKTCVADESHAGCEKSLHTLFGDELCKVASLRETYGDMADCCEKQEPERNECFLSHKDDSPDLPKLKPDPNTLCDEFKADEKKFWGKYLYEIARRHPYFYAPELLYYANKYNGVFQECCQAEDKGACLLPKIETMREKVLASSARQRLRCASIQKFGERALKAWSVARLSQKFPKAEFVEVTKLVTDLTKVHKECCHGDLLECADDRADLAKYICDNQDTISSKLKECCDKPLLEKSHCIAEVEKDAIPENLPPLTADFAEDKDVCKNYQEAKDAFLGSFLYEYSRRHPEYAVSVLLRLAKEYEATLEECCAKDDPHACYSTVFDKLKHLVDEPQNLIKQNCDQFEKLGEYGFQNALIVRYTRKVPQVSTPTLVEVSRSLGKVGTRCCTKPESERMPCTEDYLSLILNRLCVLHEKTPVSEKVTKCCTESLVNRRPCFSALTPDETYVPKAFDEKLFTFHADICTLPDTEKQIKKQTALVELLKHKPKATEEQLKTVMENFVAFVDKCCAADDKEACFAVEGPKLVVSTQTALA

COc1cc(OC)c(C#Cc2cc(CN3C[C@H](CC(C)C)N(CC(=O)[O-])C[C@H](CC(C)C)N(CC(=O)[O-])C[C@H](CC(C)C)N(CC(=O)[O-])C[C@@H]3CC(C)C)nc(P(C)(=O)[O-])c2)c(OC)c1.[Eu+3] [Complex 10]
glum ΔJ = 1 (λ) DMSO [1]: −0.11 (591)
glum ΔJ = 3 (λ) DMSO [1]: −0.12 (657)
R, I(5D0 → 7F2)/I(5D0 → 7F1) [2]: 3.01
q (calculated from ref 60) ([2]; from lifetimes in MeOH and MeOD): 0.05^g
ΦEuEu (%) ([2]; intrinsic quantum yield, calculated value): 36.9%
τD2O/MeOD ([2]; luminescence lifetime, 5D0 → 7F2 transition, D2O (MeOD for 10)): 1.74 ms
τH2O/MeOH ([2]; luminescence lifetime, 5D0 → 7F2 transition, H2O (MeOH for 10)): 1.39 ms
ΦDMSO (%) [2]: 45.3%
ΦH2O/MeOH (%) ([2]; luminescence quantum yield relative to quinine sulfate in 0.1M H2SO4, H2O (MeOH for 10, insoluble in H2O)): 11.1%
λabs(max) [2]: 364
ηsens (%) ([2]; sensitization efficiency, calculated according to ref 61): 30.1%
water solubility [3]: poor water solubility

CC[C@H]1CN(CC(=O)O)[C@@H](CC)CN(CC(=O)O)[C@@H](CC)CN(CC(=O)O)[C@@H](CC)CN1CC(=O)O [Complex L2, 2,2′,2″,2′″-((2S,5S,8S,11S)-2,5,8,11-tetraethyl-1,4,7,10-tetraazacyclododecane-1,4,7,10-tetrayl)tetraacetic acid]
time to complete complexation with Eu(OTf)3 [4]: ≤ 5 min

COc1cc(OC)c(C#Cc2cc(CN3CC(Cc4ccccc4)N(CC(=O)[O-])CC(Cc4ccccc4)N(CC(=O)[O-])CC(Cc4ccccc4)N(CC(=O)[O-])CC3Cc3ccccc3)nc(P(C)(=O)[O-])c2)c(OC)c1.[Eu+3] (centres unmarked) [Complex 11]
glum ΔJ = 3 (λ) DMSO [1]: +0.25 (657)
R, I(5D0 → 7F2)/I(5D0 → 7F1) [2]: 2.69
ΦDMSO (%) [2]: 40.4%
λabs(max) [2]: 354
water solubility [3]: poor water solubility

CC[C@H]1CN(CC(=O)[O-])[C@@H](CC)CN(CC(=O)[O-])[C@@H](CC)CN(CC(=O)[O-])[C@@H](CC)CN1CC(=O)[O-].[Gd+3] [[GdL2]^−]
r1 4.5 w/v BSA (1.5 T) [5]: 3.6
r1 Human Plasma (1.5 T) [5]: 2.9
r1 Water (1.5 T) [5]: 2.6
r1 Water (11.7 T) [5]: 3.1
ratio of TSA/SA after DTPA challenge [6]: remained the same
decomplexation in presence of competitive ligand DTPA [6]: No trace of any decomplexation

C[C@H]1CN(CC(=O)[O-])[C@@H](C)CN(CC(=O)[O-])[C@@H](C)CN(CC(=O)[O-])[C@@H](C)CN1CC(=O)[O-].[Gd+3] [[GdL1]^−]
complex binding with BSA (BSA; [7]): less than 5%
% bound In BSA (BSA; [8]): (1.3% bound)
Conc. (mM) In BSA after (BSA; [8]): 0.3185 mM
% bound In BSA (BSA; [9]): (1.5% bound)
Conc. (mM) In BSA after (BSA; [9]): 0.1568 mM
% bound In BSA (BSA; [10]): (3.7% bound)
Conc. (mM) In BSA after (BSA; [10]): 0.02 mM
% bound In BSA (BSA; [11]): (1.9% bound)
Conc. (mM) In BSA after (BSA; [11]): 0.3641 mM
% bound In BSA (BSA; [12]): (3.4% bound)
Conc. (mM) In BSA after (BSA; [12]): 0.1498 mM
% bound In BSA (BSA; [13]): (2.2% bound)
Conc. (mM) In BSA after (BSA; [13]): 0.02458 mM
r1 4.5 w/v BSA (1.5 T) [5]: 4.1
r1 Human Plasma (1.5 T) [5]: 3.9
r1 Water (1.5 T) [5]: 3.4
r1 Water (11.7 T) [5]: 2.8
complex binding with human plasma (human plasma; [7]): less than 5%
% bound In Plasma (human plasma; [14]): (2.2% bound)
Conc. (mM) In Plasma after (human plasma; [14]): 0.3097 mM
% bound In Plasma (human plasma; [15]): (1.8% bound)
Conc. (mM) In Plasma after (human plasma; [15]): 0.1592 mM
% bound In Plasma (human plasma; [16]): (4.7% bound)
Conc. (mM) In Plasma after (human plasma; [16]): 0.02015 mM
% bound In Plasma (human plasma; [17]): (2.6% bound)
Conc. (mM) In Plasma after (human plasma; [17]): 0.3602 mM
% bound In Plasma (human plasma; [18]): (2.2% bound)
Conc. (mM) In Plasma after (human plasma; [18]): 0.1311 mM
% bound In Plasma (human plasma; [19]): (3.9% bound)
Conc. (mM) In Plasma after (human plasma; [19]): 0.01816 mM
ratio of TSA/SA after DTPA challenge [6]: remained the same
decomplexation in presence of competitive ligand DTPA [6]: No trace of any decomplexation

Source: US11357873B2, “Chiral cyclen compounds and their uses” (THE HONG KONG POLYTECHNIC UNIVERSITY, priority 2016, dated 2022)
